Results: patent US9492805B2, “Initiated chemical vapor deposition of vinyl polymers for the encapsulation of particles” (Massachusetts Institute of Technology, priority 2005, dated 2016)

Test: Release of ibuprofen from pellets of 25 μm microcrystals in pH buffers, light absorption at 220 nm
Type: physicochemical
Conditions: pH 7.4
Description: In another example, 25 μm ibuprofen microcrystals were encapsulated with the iCVD P(MAA-EDMA) copolymer and likewise ibuprofen release was tracked over time at different pH conditions. FIG. 26a gives the time release profiles, comparing uncoated and coated ibuprofen at pH 1.2 and 7.4. […] This enhanced protection in acids would be important for drugs such as ibuprofen and other non-steroidal anti-inflammatory drugs that are known to cause stomach ulceration and hemorrhaging, leading to mucosal damage and severe blood loss with acute dosage and prolonged administration. [S. E. Gabriel, L. Jaakkimainen, C. Bombardier, Ann. Intern. Med. 1991, 115, 787-796; and [ M. M. Wolfe, D. R. Lichtenstein, G. Singh, N. Engl. J. Med. 1999, 340, 1888-1899.] The increase in drug dissolution and activity by using finer drug particles would likely exacerbate this problem. […]
Release Measurements. […] For fluorescein, release was monitored at 490 nm, comparing fluorescein layered on silicon substrates that were exposed or encapsulated with an iCVD P(MAA-EDMA) coating. For ibuprofen, 25 μm ibuprofen microcrystals (DuPont), that were bare or encapsulated with an iCVD P(MAA-EDMA) coating, were compressed into pellets and their release monitored at 220 nm. Absorption was measured on a Varian Cary 6000i.

- release of ibuprofen at near neutral pH: relatively fast
Structure (SMILES): CC(C)Cc1ccc(C(C)C(=O)O)cc1 (stereo not shown) [ibuprofen]
